Data on three compounds can be found in patent US7157092B1, “Acyl pseudodipeptides, preparation method and pharmaceutical compositions containing same” (Om Pharma, priority 1998, dated 2007).

Where “and” joins values, the source holds several entries; their conditions need not be identical. Identical values can stand only once.

The test system of the assay is TT antigen. Nature of the assay: Subcutaneous immunization with TT antigen (tetanos toxoid): specific serum immunoglobulins (ELISA). In kind it is in vivo, BALB/c mice. The note with it: for adjuvant effect on titer of IgG1 and IgG2a antibodies specifically raised against TT: after one or two injections, FIGS. 28, 29; for Titer of immunoglobulins specifically directed against TT of IgM subclass (number of animals and dilution): dilution giving signal at 490 nm greater than mean ± 3 SD of group A; for Immunoglobulins specifically raised against TT of IgG1 subclass / Immunoglobulins specifically raised against TT of IgG2a subclass: s.c. injections days 0 and 14, adjuvant 50 μg per injection, ± SD. The method, then: To this end, 40 BALB/c mice (females, 8 weeks-old at the beginning of treatment) are divided into 4 groups as follows:
Antigen: A TT stock solution is prepared at a concentration of 0.2 mg/ml in 0.9% NaCl.
The negative control consists of a 0.9% NaCl solution without antigen.
Antigen-Adjuvant mixture: Adjuvants are allowed to stand for 20 minutes at 37° C. before vortex treatment for 3 minutes. Then the antigen and (0.9%) NaCl are added as specified in the above Table, and the antigen/adjuvant mixture is vortexed briefly before placing it on a rotary stirrer for 15 minutes at room temperature, then the whole mixture is vortexed for 3 minutes.
Immunization regimen: Injections are scheduelled on days 0 and 14. The mixtures stated in the preceeding table are administered by subcutaeous route (75 μl on the side, 150 μl in total per animal). Blood sampling is scheduelled on days 14 and 28 (orbital puncture).
Assay for anti-TT immunoglobulins: The following serum Immunolglobulins which are specifically directed against TT are assayed in duplicate by ELISA: IgG1, IgG2a, and IgM. Microtiter plates (NUNC Immunoplate, Roskilde, DK) are incubated (overnight coating) at 4° C. together with 100 μl TT (0.5 μg) in bicarbonate buffer (pH 9.6). After washing with 0.5% Tween-20 (Merck Hohenbrunn, D), sera are diluted 50-, 200- and 800-fold (diluting solution: phosphate buffered saline (PBS)+1% bovine serum albumin (BSA, Sigma, St. Louis, Mo., USA)+0.02% Tween-20)). 100 μl of each dilute serum sample are added to the wells. Incubation lasts 45 minutes at 37° C.
After a second washing step, IgG1, IgG2a and IgM specifically directed to ovalbumin are incubated for 30 minutes at 37° C. together with 100 μl of anti-IgG1 antibodies-peroxydase conjugate (Serotec, Oxford, UK), IgG2a-peroxydase conjugate (Pharmingen, San Diego, Calif., USA) and IgM-biotin conjugate (Pharmingen, San Diego, Calif., USA), diluted beforehand in PBS/BSA/Tween buffer (250-, 1000-, 500-fold dilutions, respectively). For IgM, after an extra washing step, a 3rd incubation step is required (30 min. at 37° C.) with a 1:100 dilute solution of streptavidin-peroxydase conjugate (Dako, Glostrup, DK).
After the washing step, 100 μl of a phenylene 1,2-diamine solution (OPD, Merck, Darmstadt, GFR) are added to detect peroxydase-coupled anti-IgG1 and anti-IgG2 secondary antibodies (whereas for IgM, the reagent being used is 3′, 3′, 5′,5′-tetramethylbenzidine (TMB, Sigma, St. Louis, Mo., USA). After a 20 minute incubation period at room temperature (40 min. for TMB), the reaction is stopped by adding 100 μl of 2N H2SO4. Absorbance values are read at 490 nm with a Bio-Rad 3550 model plate reader
Results of each reading at 490 nm when measuring IgG1 and IgG2a are given in arbitrary units (A.U.) per ml. This is achieved by comparing each sample with a standard prepared from different dilutions of a sample pool collected from the group B at day 28 (animals injected with TT alone). As this term implies, the sample pool diluted 50-fold is at a concentration of 1000 A.U./ml. Individual results are then corrected for the corresponding dilution factor (50, 200, or 800 fold). Only the mean values of each group and the standard deviation (SD) are herein reported.
Regarding the assay of IgM specific for TT, since the “background noise” of the assay was too high, no clear cut difference could be found between group B (TT alone) and groups C and D (TT with adjuvant) by measuring specific IgM as previously done for IgG1 and IgG2a. Instead, specific IgM titer could be determined, using successive dilutions of each sample (rather than A.U. described before) and the result was reported, for each sample, as the highest dilution which gives an absorbance reading greater than mean absorbance±3 SD for group A (NaCl).

`CCCCCCCCCCCC(=O)O[C@H](CCCCCCCCCCC)CC(=O)NC(CCOP(=O)(O)O)C(=O)NCCCC(COP(=O)(O)O)NC(=O)C[C@H](O)CCCCCCCCCCC` (stereo partly drawn) [OM-294-DP, 3-[(R)-3-dodecanoyloxytetradecanoylamino]-4-oxo-5-aza-9-[(R)-3-hydroxytetradecanoylamino]decan-1,10-diol 1, 10-bis(dihydrogenphosphate)]: the “adjuvant effect on titer of IgG1 and IgG2a antibodies specifically raised against TT” value is “often significantly increase the titer of IgG1 and IgG2a antibodies”.

As for `CCCCCCCCCCCC(=O)O[C@H](CCCCCCCCCCC)CC(=O)NC(CCOP(=O)(O)O)C(=O)NCCCC(CO)NC(=O)C[C@H](O)CCCCCCCCCCC` (stereo partly drawn) [OM-294-MP, 3-[(R)-3-dodecanoyloxytetradecanoylamino]-4-oxo-5-aza-9-[(R)-3-hydroxytetradecanoylamino]-decane-1,10-diol 1-dihydrogenphosphate], the “adjuvant effect on titer of IgG1 and IgG2a antibodies specifically raised against TT” value is “often significantly increase the titer of IgG1 and IgG2a antibodies”.

For the compound “TT: TT antigen (tetanos toxoid, Massachussetts Biologic Laboratoires), injected alone”, where the note is “Day 14”, the “Titer of immunoglobulins specifically directed against TT of IgM subclass (number of animals and dilution)” value is 9 animals < 25 and 1 animal < 50; the “Immunoglobulins specifically raised against TT of IgG1 subclass” value is 2871 ± 1633 Arbitrary units/ml; the “Immunoglobulins specifically raised against TT of IgG2a subclass” value stood at 2547 ± 2539 Arbitrary units/ml. In addition, for the setting “Day 28”, the “Titer of immunoglobulins specifically directed against TT of IgM subclass (number of animals and dilution)” value came to 10 animals < 25; the “Immunoglobulins specifically raised against TT of IgG1 subclass” value is 34367 ± 15018 Arbitrary units/ml; the “Immunoglobulins specifically raised against TT of IgG2a subclass” value came to 61387 ± 82269 Arbitrary units/ml.
